Measured values as given in BindingDB's records for doi:10.3109/14756366.2012.712516 (Dumlupinar University, 2013).

What was measured:
Carbonic anhydrase 1 [1] = target: T1, Carbonic anhydrase 1 (Homo sapiens, UniProt P00915); assay: Hydratase Activity Assay
Carbonic anhydrase 2 [2] = target: T2, Carbonic anhydrase 2 (Homo sapiens, UniProt P00918); assay: Hydratase Activity Assay
Carbonic anhydrase 1 [3] = target: T1, Carbonic anhydrase 1; assay: Esterase Activity Assay; conditions: pH 7.4
Experimental: (§1) The enzymatic reaction, in a total volume of 3.0 mL, contained 1.4 mL of 0.05 M Tris-SO4 buffer (pH 7.4), 1 mL of 3 mM 4-nitrophenylacetate, 0.5 mL H2O and 0.1 mL enzyme solution.

Carbonic anhydrase 2 [4] = target: T2, Carbonic anhydrase 2; assay: Esterase Activity Assay; conditions: pH 7.4
Experimental: as §1

Carbonic anhydrase 1 [5] = target: T1, Carbonic anhydrase 1; assay: CA Activity Assay
Carbonic anhydrase 2 [6] = target: T2, Carbonic anhydrase 2; assay: CA Activity Assay

T1 sequence (P00915 whole entry): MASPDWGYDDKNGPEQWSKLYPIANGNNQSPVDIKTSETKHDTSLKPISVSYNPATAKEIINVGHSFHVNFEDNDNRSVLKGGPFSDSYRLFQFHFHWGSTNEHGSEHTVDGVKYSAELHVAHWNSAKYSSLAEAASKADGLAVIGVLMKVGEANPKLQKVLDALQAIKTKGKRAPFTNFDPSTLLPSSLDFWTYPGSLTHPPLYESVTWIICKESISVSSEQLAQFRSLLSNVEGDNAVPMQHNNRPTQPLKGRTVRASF

Q: With `NS(=O)(=O)c1nnc(NC(=O)c2nn(-c3cccc([N+](=O)[O-])c3)c(-c3ccccc3)c2C(=O)c2ccccc2)s1` [N-[5-(aminosulfonyl)-1,3,4-thiadiazol-2-yl]-4-benzoyl-1-(3-nitrophenyl)-5-phenyl-1H-pyrazole-3-carboxamide (1)] as the compound, how does the IC50 (Carbonic anhydrase 1 [1]) read?
A: 1200 nM

Q: What about the IC50 (Carbonic anhydrase 2 [2]) of the same compound?
A: 400 nM

Q: What about the IC50 (Carbonic anhydrase 1 [3]) of the same compound?
A: 1400 nM

Q: And the IC50 (Carbonic anhydrase 2 [4])?
A: 3000 nM

Q: What about the Ki (Carbonic anhydrase 1 [5]) of the same compound?
A: 1400 nM

Q: And the Ki (Carbonic anhydrase 2 [6])?
A: 3000 nM
